Test results: PubChem BioAssay (NCI)
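Dose response: 5 concentrations. Exposure: 48 h. Format: 96-well plates. Endpoint: linear interpolation; highest concentration if not reached. TGI: concentration producing complete growth inhibition.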

Tested on: RXF-631 renal
Experiment: NCI tumour cell line growth inhibition, 48 h

CN1CCN(c2cc(-c3cc4ccccc4o3)oc(=O)c2C#N)CC1
TGI: > 100 µM
